Data on 47 molecules can be found in patent publication US9624228B2, “Inhibitors of ERK and methods of use” (KURA ONCOLOGY, INC., priority 2013, dated 2017).

The target of one experiment is ERK2 enzyme (Homo sapiens (Human), UniProt P28482). As to the kind of experiment: Inhibition assay of ERK (Z'-LYTE kinase assay, Ser/Thr 3 peptide substrate). The format is biochemical. To be noted: In vitro ERK2 enzyme, 100 μM ATP.
Sequence of ERK2 enzyme (P28482 whole entry): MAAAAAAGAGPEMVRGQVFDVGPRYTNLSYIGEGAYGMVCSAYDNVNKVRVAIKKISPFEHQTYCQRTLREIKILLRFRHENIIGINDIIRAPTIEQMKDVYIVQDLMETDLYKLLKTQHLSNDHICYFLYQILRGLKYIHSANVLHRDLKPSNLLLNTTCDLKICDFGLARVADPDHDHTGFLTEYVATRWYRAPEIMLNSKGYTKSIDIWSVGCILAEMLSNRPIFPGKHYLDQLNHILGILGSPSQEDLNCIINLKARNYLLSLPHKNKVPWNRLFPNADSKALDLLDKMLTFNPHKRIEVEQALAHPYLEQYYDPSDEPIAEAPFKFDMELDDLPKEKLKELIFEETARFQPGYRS
In the case of `COc1cccc(F)c1CN1CC[C@@H](N2Cc3cc4c(-c5ccnc(C)c5)n[nH]c4cc3NC2=O)C1` [Compound 162], the IC50 was < 50 nM.

Molecule `COc1ncc(-c2n[nH]c3cc4c(cc23)CCN(Cc2ccc(F)cc2)C(=O)N4)cn1` [Compound 130] gave an IC50 of 50 to 250 nM.

On to `O=C1Nc2cc3[nH]nc(-c4ccc5nncn5c4)c3cc2CN1Cc1cccc(Cl)c1` [Compound 59], for which the IC50 is < 50 nM.

For `Cc1cc(-c2n[nH]c3cc4c(cc23)CN([C@@H]2CCCN(Cc3ccc(F)cc3F)C2)C(=O)N4)ccn1` [Compound 196], the IC50 is < 50 nM.

On to `Cc1cc(-c2n[nH]c3cc4c(cc23)CN([C@@H]2CCCN(Cc3ccc(F)c(Cl)c3)C2)C(=O)N4)ccn1` [Compound 134], for which the IC50 was < 50 nM.

For `O=C1Nc2cc3[nH]nc(-c4ccnnc4)c3cc2CN1CCc1ccc(F)cc1` [Compound 110], the IC50 is < 50 nM.

On to `[2H]C([2H])(c1ccccc1)N1CCC[C@@H](N2Cc3cc4c(-c5ccnc(C)c5)n[nH]c4cc3NC2=O)C1` [Compound 148], for which the IC50 was < 50 nM.

In the case of `Cc1cc(-c2n[nH]c3cc4c(cc23)CN([C@@H]2CCCN(C(C)c3cccc(Cl)c3)C2)C(=O)N4)ccn1` (some centres unmarked) [Compound 180], the half-inhibitory concentration (IC50) was in the range of 50 to 250 nM.

As to `Cc1ccc(CN2CCC[C@@H](N3Cc4cc5c(-c6ccnc(C)c6)n[nH]c5cc4NC3=O)C2)cn1` [Compound 131], the IC50 was 50 to 250 nM.

In the case of `Cc1cc(-c2n[nH]c3cc4c(cc23)CN(Cc2ccc(C(F)(F)F)cc2)C(=O)N4)ccn1` [Compound 12], the IC50 is 50 to 250 nM.

For the molecule `Cc1cc(-c2n[nH]c3cc4c(cc23)CN(Cc2ccc(Cl)cc2)C(=O)N4)ccn1` [Compound 14], the IC50 is < 50 nM.

`Cc1cc(-c2n[nH]c3cc4c(cc23)CN(CCNCc2ccc(F)c(Cl)c2)C(=O)N4)ccn1` [Compound 173]: the half-inhibitory concentration (IC50) was < 50 nM.

Consider `Cc1cc(-c2n[nH]c3cc4c(cc23)CN(Cc2ccc(F)c(Cl)c2)C(=O)N4)ccn1` [Compound 8], for which the IC50 is < 50 nM.

For the molecule `COc1ncc(-c2n[nH]c3cc4[nH]c(=O)c(C(C)c5cccc(Cl)c5)cc4cc23)cn1` (centres unmarked) [Compound 129], the IC50 was 50 to 250 nM.

Regarding `Cc1cc(-c2n[nH]c3cc4c(cc23)CN([C@@H]2CCCN(Cc3c(F)cccc3F)C2)C(=O)N4)ccn1` [Compound 143], the IC50 is < 50 nM.

The molecule `Cc1cc(-c2n[nH]c3cc4[nH]c(=O)n(CCc5ccccc5)c4cc23)ccn1` [Compound 20] registered an IC50 of 50 to 250 nM.

`Cc1cc(-c2n[nH]c3cc4c(cc23)CN([C@@H]2CCCN(CC3CCCCC3)C2)C(=O)N4)ccn1` [Compound 141]: the half-maximal inhibitory concentration (IC50) fell in the range of 50 to 250 nM.

In the case of `O=C1Nc2cc3[nH]nc(-c4ccnnc4)c3cc2CN1[C@H](CO)c1cccc(Cl)c1` [Compound 117], the IC50 was < 50 nM.

Molecule `Cc1cc(-c2n[nH]c3cc4c(cc23)CN([C@@H]2CCCN(CC3CC3)C2)C(=O)N4)ccn1` [Compound 62] gave an IC50 of 50 to 250 nM.

Turning to `COc1ncc(-c2n[nH]c3cc4c(cc23)CN([C@@H]2CCCN(Cc3ccccc3F)C2)C(=O)N4)cn1` [Compound 101], the IC50 is < 50 nM.

For the molecule `O=C1Nc2cc3[nH]nc(-c4ccnnc4)c3cc2CN1[C@@H]1CCCN(Cc2ccccc2)C1` [Compound 120], the IC50 is < 50 nM.

The molecule `O=C1Nc2cc3[nH]nc(Br)c3cc2CN1Cc1ccc(F)cc1` [Compound 29] yielded an IC50 of 250 to 1000 nM.

Regarding `Cc1cc(-c2n[nH]c3cc4c(cc23)CN([C@@H]2CCCN(Cc3cc(F)ccc3F)C2)C(=O)N4)ccn1` [Compound 187], the concentration for half-maximal inhibition (IC50) is < 50 nM.

Molecule `Cc1cc(-c2n[nH]c3cc4c(cc23)CN([C@@H]2CCCN(Cc3cc(C(C)(C)C)no3)C2)C(=O)N4)ccn1` [Compound 186] registered an IC50 of 50 to 250 nM.

Turning to `Cc1cc(-c2n[nH]c3cc4c(cc23)CN([C@@H]2CCCN(C)C2)C(=O)N4)ccn1` [Compound 33], the IC50 was < 50 nM.

The molecule `Cc1cc(-c2n[nH]c3cc4c(cc23)CN([C@@H]2CCCN(CC3CCC3)C2)C(=O)N4)ccn1` [Compound 137] registered an IC50 of 50 to 250 nM.

On to `Cc1cc(-c2n[nH]c3cc4c(cc23)CN(Cc2ccc(CC#N)cc2)C(=O)N4)ccn1` [Compound 65], for which the IC50 was < 50 nM.

As for `Cc1cc(-c2n[nH]c3cc4c(cc23)CN([C@@H]2CCCN(CCc3ccccc3)C2)C(=O)N4)ccn1` [Compound 145], the IC50 is < 50 nM.

With `Cc1cc(-c2n[nH]c3cc4c(cc23)CN([C@@H]2CCCN(CCc3ccc(F)cc3)C2)C(=O)N4)ccn1` [Compound 167], the IC50 lay in the range of 50 to 250 nM.

Staying with this experiment, now noted: In vitro, ERK2 enzyme 0.47 ng/μL, 100 μM ATP.
Turning to `CC(c1ccccc1)c1cc2cc3c(-c4ccc(N5CCOCC5)nc4)n[nH]c3cc2[nH]c1=O` (centres unmarked) [Compound 324], the half-maximal inhibitory concentration (IC50) lay in the range of 50 to 250 nM.

`Cc1cc(-c2n[nH]c3cc4c(cc23)CN(C2CN(CC3CCCC3)CC(F)(F)C2)C(=O)N4)ccn1` (centres unmarked) [Compound 201] showed an IC50 of 250 to 1000 nM.

The molecule `Cc1cc(-c2n[nH]c3cc4c(cc23)CN([C@@H]2CCCN(c3cccc(C)n3)C2)C(=O)N4)ccn1` [Compound 238] displayed an IC50 of 50 to 250 nM.

Consider `Cc1cc(-c2n[nH]c3cc4c(cc23)CN([C@@H]2CCCN(Cc3ccc(C)s3)C2)C(=O)N4)ccn1` [Compound 245], for which the IC50 was < 50 nM.

`Cc1cc(-c2n[nH]c3cc4c(cc23)CN([C@@H]2CN(CC(F)(F)F)C[C@H]2C)C(=O)N4)ccn1` (racemic) [Compound 302]: the IC50 is < 50 nM.

The molecule `COc1ccc(-c2n[nH]c3cc4c(cc23)CN([C@H]2CCCN(Cc3ccc(F)cc3F)C2)C(=O)N4)cn1` [Compound 369] yielded a 50% inhibitory concentration (IC50) of 250 to 1000 nM.

Molecule `Cc1cc(-c2n[nH]c3cc4c(cc23)CN([C@@H]2CN(CC(F)(F)F)C[C@H]2c2ccccc2)C(=O)N4)cc(C)n1` [Compound 242] registered an IC50 of 50 to 250 nM.

Consider `COc1ncc(-c2n[nH]c3cc4[nH]c(=O)c(C5CCCN(Cc6ccccc6)C5)cc4cc23)cn1` (centres unmarked) [Compound 364], for which the IC50 was < 50 nM.

Consider `Cc1cc(-c2n[nH]c3cc4c(cc23)CN(CC2CC2)C(=O)N4)ccn1` [Compound 258], for which the IC50 is < 50 nM.

`Cc1cc(-c2n[nH]c3cc4c(cc23)CN(C2CN(Cc3cc(F)cc(F)c3)CC(F)(F)C2)C(=O)N4)ccn1` (centres unmarked) [Compound 202] had a half-maximal inhibitory concentration (IC50) of 250 to 1000 nM.

On to `Cc1cc(-c2n[nH]c3cc4c(cc23)CN([C@@H]2CN(CC(F)F)C[C@H]2c2ccccc2)C(=O)N4)cc(C)n1` (mixture of isomers) [Compound 379], for which the concentration for half-maximal inhibition (IC50) is < 50 nM.

Take `CC(c1ccccc1)c1cc2cc3c(-c4ccnnc4)n[nH]c3cc2[nH]c1=O` (centres unmarked) [Compound 323]: the IC50 was < 50 nM.

In the case of `Cc1cc(-c2n[nH]c3cc4c(cc23)CN([C@@H]2CN(C(C)C)C[C@H]2c2ccccc2)C(=O)N4)ccn1` (racemic) [Compound 279], the IC50 is < 50 nM.

With `Cc1cc(-c2n[nH]c3cc4c(cc23)CN([C@@H]2CCN(C)C2)C(=O)N4)ccn1` [Compound 255], the IC50 is < 50 nM.

On to `Cc1cc(-c2n[nH]c3cc4c(cc23)CN([C@@H]2CCN(CC(F)(F)F)C2)C(=O)N4)ccn1` [Compound 214], for which the IC50 is < 50 nM.

`Cc1ccc(-c2n[nH]c3cc4c(cc23)CN([C@@H]2CCCN(Cc3ccc(F)cc3F)C2)C(=O)N4)cn1` [Compound 284]: the IC50 is < 50 nM.

For the molecule `Cc1cc(-c2n[nH]c3cc4c(cc23)CN([C@@H]2CCCN(Cc3csc(C)c3)C2)C(=O)N4)ccn1` [Compound 251], the concentration for half-maximal inhibition (IC50) was < 50 nM.

`Cc1ccc(-c2n[nH]c3cc4[nH]c(=O)c(C5CCCN(Cc6ccccc6)C5)cc4cc23)cn1` (centres unmarked) [Compound 373] gave an IC50 of 50 to 250 nM.

The term IC50 denotes the concentration that inhibits the measured activity by half. Higher therefore signals weaker potency in that assay.
